One series has as its system rats. Conditions: rats, gestational days 6–17; ref Australian Therapeutic Goods Administration [2014]; cited from earlier work.
The test system of series [1] is Tubulin α1 (Tα1) promoter. The text has this:
(§1) Dual luciferase expressing CGR8-2Luc cells were obtained by transduction of mouse ESC CGR8 cells with the 2K7 EFS-Renilla Luciferase (RLuc)/Talpha1-Firefly Luciferase (FLuc) vector as previously described (Suter et al. [2006], [2009]); EFS corresponds to the short promoter of the eukaryotic translation elongation factor 1 alpha (EF1α), and Talpha1 to the Tubulin α1 (Tα1) promoter. Tα1 was selected as a promoter active in neurons, including early stages of neural differentiation. EF1α was originally selected to function as a constitutive promoter; however, it responds to cellular differentiation as well as to various chemicals, as previously shown (Kern et al. [2013]). Cells were cultured on 0.1 % gelatin-coated dishes in CGR8-2luc maintenance medium: BHK21 medium, supplemented with 10 % fetal calf serum, L-glutamine, non-essential amino acids, penicillin/streptomycin, and leukemia inhibitory factor (LIF). CGR8 cells were grown in a feeder-independent manner (embryonic pluripotent stem cells, ESCs) as described in protocol 1 (Fig. 1) before testing compounds of interest.
(§2) Fig. 1 Synopsis of experimental protocols. The impact of compounds on neural promoter activity (FLuc, Firefly Luciferase under the control of the Tα1 promoter), general promoter activity (RLuc, Renilla Luciferase under the control of the EF1α promoter), and amount of DNA (PI, propidium iodide fluorescence in cell homogenates) was investigated in undifferentiated mouse embryonic pluripotent stem cells (ESCs) and on ESC-derived neurons. Arrows indicate the time of measurement of the three parameters. a Protocol for testing compounds effects on ESCs. CGR8-2Luc cells were plated on gelatin-coated 96-well plates in maintenance medium (BHK21 medium containing 10 % FCS, L-glutamine, NEAA, P/S, and LIF). Twenty-four hours later, cells were exposed to compounds for forty-eight hours. b Protocol for testing compounds on ESC-derived neurons. CGR8-2Luc cells were co-cultured with MS5 cells to induce neural differentiation in DMEM medium containing 15 % KO-serum, NEAA, β-mercaptoethanol, and P/S. On day 5, cells were detached and seeded on polyornithine-coated plates in DMEM medium containing N2 supplement, bFGF, and P/S; compound exposure was from day 6 to day 8
(§3) To test compounds on ESC-derived neurons, neuronal differentiation was carried out as previously described (Suter et al. [2009]; Xu et al. [2014]). Briefly, CGR8-2Luc cells were seeded on irradiated bone marrow-derived stromal MS5 cells and cultivated for 4 days in DMEM medium containing 15 % Knock-out™ Serum Replacement, non-essential amino acids, beta-mercaptoethanol, and penicillin/streptomycin. At day 5, cells were then re-plated (3 × 10^5 cells/cm^2) on polyornithine-coated 96-well plates in N2 medium containing DMEM, N2 supplement, penicillin/streptomycin, and 10 ng/ml basic human fibroblast growth factor (bFGF) (Invitrogen). […] To assess toxicity of compounds on undifferentiated pluripotent stem cells (ESCs), CGR8-2Luc cells were plated at 45,000 cells/cm^2 on 0.1 % gelatin-coated dishes in BHK21 medium, supplemented with 10 % fetal calf serum, L-glutamine, non-essential amino acids, penicillin/streptomycin, and leukemia inhibitory factor (LIF). After 24 h, compounds were added and incubated for 48 h, before luciferase expression and PI fluorescence were analyzed. In all experiments, methylmercury was used as a positive control at a concentration of 5 µM.
(§4) Luciferase activities were measured with a Dual-Luciferase™ Reporter system kit. CGR8-2Luc ES cells were lysed in 96-well plates according to the manufacturer’s instructions. Luminescence measurements were performed on a Fluostar Optima reader. Luminescence counts were expressed as percentage of promoter activity normalized by comparison with the control wells treated by DMSO.

The next series concerns EF1α promoter.
Excerpt: as §1, §2, §3, §4

The conditions of series [2]: Table S1, three classes; ref per compound in the footnotes of Table S1; cited from earlier work.
For series [3] the following is noted: cited from earlier work.
Series [4] relates to ESCs and ESC-derived neurons. Briefly: Dual luminescence reporter test system, all readouts in ESCs and ESC-derived neurons.
Excerpt: as §2, with “neurons.” for “neurons. CGR8-2Luc cells were co-cultured with MS5 cells to induce neural differentiation in DMEM medium containing 15 % KO-serum, NEAA, β-mercaptoethanol, and P/S. On day 5, cells were detached and seeded on polyornithine-coated plates in DMEM medium containing N2 supplement, bFGF, and P/S; compound exposure was from day 6 to day 8”
as §3, with “At” for “To test compounds on ESC-derived neurons, neuronal differentiation was carried out as previously described (Suter et al. [2009]; Xu et al. [2014]). Briefly, CGR8-2Luc cells were seeded on irradiated bone marrow-derived stromal MS5 cells and cultivated for 4 days in DMEM medium containing 15 % Knock-out™ Serum Replacement, non-essential amino acids, beta-mercaptoethanol, and penicillin/streptomycin. At”
Luciferase activities were measured with a Dual-Luciferase™ Reporter system kit. CGR8-2Luc ES cells were lysed in 96-well plates according to the manufacturer’s instructions. Luminescence measurements were performed on a Fluostar Optima reader. Luminescence counts were expressed as percentage of promoter activity normalized by comparison with the control wells treated by DMSO. […] parameters were measured in homogenates of ESCs and in ESC-derived neurons: (1) FLuc, reflecting the activity of early neural promoter Tα1. FLuc increases during neuronal differentiation. Many neurotoxic compounds may affect FLuc expression, either through impact on neuronal differentiation, through changes of neuronal gene expression, or through killing of neurons.
(§5) PI was added to cell homogenates after the luciferase test, at a final concentration of 50 µg/ml and incubated for 2 h. After incubation, fluorescence intensity was measured on a Flexstation 3 microplate reader (Excitation: 544 nm ± 15 nm; Emission: 620 nm ± 15 nm). Results are expressed as percentage of control. Propidium iodide (PI) measures total DNA content as an approximation of the cell number. A decrease in PI fluorescence was interpreted as a decrease in cell number and therefore throughout the text referred to as cytotoxicity.
To describe the shape of different concentration–response curves, arbitrary scores were assigned as follows: 0 for “no change,” 1 for “down-stroke,” 2 for “bimodal profile,” and 3 for “up-stroke” (Fig. S1). A curve was classified as “down-stroke” or “up-stroke” if the change in response values comparative to control was statistically significant (p value <0.05, one-way ANOVA with post hoc Dunnett) with an additional requirement of a 30 % decrease or increase of mean response value relative to controls, respectively. If the absolute change in mean response values was below 30 % the curve was classified as “no change.” A curve was classified as “bimodal” if first up-stroke and subsequently down-stroke was observed.

Another series relates to ESC-derived neurons.
Excerpt: as §2, §3
as §5, with “After measurement of luciferase activity, DNA quantity was determined by PI assay, as previously described (Xu et al. [2014]). PI was” for “PI was”
(§6) Lowest adverse effect level (LOAEL) was defined as the lowest tested concentrations that lead to a statistically significant decrease for a given read-out (FLuc, RLuc, and PI) compared to baseline. “Baseline” was not in all cases defined by untreated cells, but may also refer to, e.g., a state of increased activity due to low, non-toxic compound concentrations.

For the next series, the system named is CGR8-2Luc ESCs.
Excerpt: as §2, §3
as §5, with “After measurement of luciferase activity, DNA quantity was determined by PI assay, as previously described (Xu et al. [2014]). PI was” for “PI was”
as §6

Series [5] has as its system Tubulin α1 (Tα1) promoter. The series can be described thus: cells.
Excerpt: as §1, §2, §3, §4

The conditions of series [6]: printed in column Concentration in humans; ref http://pubchem.ncbi.nlm.nih.gov/compound/16682730; cited from earlier work.

Data on 5 molecules can be found in publication PMC5225183, “Fingerprinting of neurotoxic compounds using a mouse embryonic stem cell dual luminescence reporter assay” (Archives of Toxicology, 2016).

Like-named read-outs stand apart in the source and are kept apart here. Marks after values point to notes of the source that are not given here.

Regarding `CC(=O)O[C@H]1CC[C@@]2(C)C(=CC[C@@H]3[C@@H]2CC[C@]2(C)C(c4cccnc4)=CC[C@@H]32)C1` [abiraterone acetate], in the series on rats, the “oral dose inducing developmental toxicity” value is given as at least 10 mg/kg/day.

As for `O=C1NS(=O)(=O)c2ccccc21` [Saccharin], in [1] (mouse), the “LOAEL ESC Tα1” value is over 50 µM. In the series on EF1α promoter (mouse), the “LOAEL ESC EF1α” value is on record as over 50 µM and the “LOAEL Neurons EF1α” value is over 50 µM. Also, the “class based on clinical evidence for neurotoxicity” value (from here on “class based on clinical evidence”) in series [2] is recorded as “Non-neurotoxic”. Further, the Concentration in humans in series [3] (ref Sweatman et al. ([1981])) was 218^c µM. In [4], the “result in the dual luminescence reporter test system” value was “negative”. In addition, the “Number of non-cytotoxic changes” value in series [4] (mouse, 48 h) came to 0. In the series with ESC-derived neurons (mouse), the “LOAEL Neurons DNA” value is over 50 µM. Besides, in the series on CGR8-2Luc ESCs (mouse), the “LOAEL ESC DNA” value is over 50 µM. Moreover, the “LOAEL Neurons Tα1” value in series [5] (mouse) is recorded as over 50 µM.

In the case of `CC(=O)[O][Hg][c]1ccccc1` [Phenylmercuric acetate], in [1], the “LOAEL ESC Tα1” value is reported as 0.5 µM. For the same molecule, in the series with EF1α promoter, the “LOAEL ESC EF1α” value turned out to be 0.5 µM and the “LOAEL Neurons EF1α” value is 0.5 µM. Further, the “class based on clinical evidence” value in [2] was “Possibly (developmental)”. In addition, the “Number of non-cytotoxic changes” value in series [4] is recorded as 0. Moreover, the “LOAEL Neurons DNA” value with ESC-derived neurons turned out to be 0.5 µM. The “LOAEL ESC DNA” value in the series on CGR8-2Luc ESCs was 0.5 µM. Besides, the “LOAEL Neurons Tα1” value in [5] is recorded as 0.5 µM. Besides, the oral lethal dose in series [6] is 5–50 mg/kg (oral lethal dose)^i.

On to `Nc1ccc(S(=O)(=O)Nc2ncccn2)cc1` [Sulfadiazine], for which the “LOAEL ESC Tα1” value in series [1] (mouse) is listed as over 50 µM. In the series with EF1α promoter (mouse), the “LOAEL ESC EF1α” value was over 50 µM and the “LOAEL Neurons EF1α” value is given as over 50 µM. Further, in series [2], the “class based on clinical evidence” value was “Possibly (developmental)”. Also, the Concentration in humans in series [3] (ref Zimmer et al. ([2014])) was 320^k µM. Further, the “Number of non-cytotoxic changes” value in [4] (mouse, 48 h) stood at 0. Moreover, the “LOAEL Neurons DNA” value in the series with ESC-derived neurons (mouse) is listed as over 50 µM. Besides, in the series with CGR8-2Luc ESCs (mouse), the “LOAEL ESC DNA” value is reported as over 50 µM. Moreover, the “LOAEL Neurons Tα1” value in [5] (mouse) is over 50 µM.

For `Clc1cc(Cl)c(-c2cc(Cl)c(Cl)cc2Cl)cc1Cl` [PCB-153], the “effect on general promoter activity in neurons” value in the series with EF1α promoter is “decreased”. Also, the “class based on clinical evidence” value in series [2] is “Well-established (developmental)”. For the same molecule, the “Concentration in humans (human exposure concentration)” value in [3] (human exposure concentration, ref Zimmer et al. ([2014])) is given as 0.0003-0.002^k (human exposure concentration) µM. For the same molecule, the “result in the dual luminescence reporter test system” value in series [4] (ESCs and neurons, FLuc, RLuc, PI) is “potentially neurotoxic”. The “Number of non-cytotoxic changes” value in [4] (reporter activity changes in the non-cytotoxic concentration range, highest possible number 4) turned out to be 2. Moreover, in the series on ESC-derived neurons, the “effect on cell number in neurons” value is “without affecting the number of cells”. For the same molecule, in [5], the “effect on neural promoter activity in neurons” value was “decreased”.
